One assay concerns VMATs. Kind of assay: VMAT uptake inhibition assay in PC12 cells. The assay is classed as cell-based. The settings on record: all at 30 µM, relative to inhibition by 30 µM reserpine. As to the method:
VMAT uptake inhibition assays were conducted as previously described, with some modifications. In brief, […] PC12 cells per well were seeded in 24-well plates the day before experimentation. The cells were pretreated with 100 nM nisoxetine and mazindol to inhibit non-specific binding. PC12 cells were then preincubated with 200 µM digitonin to permeabilize membranes and were kept at room temperature on a plate shaker at low velocity for 30 min. Cells were treated with test drugs and shaken for another 10 min. Tritiated substrate (0.05 µM [^3H]5-HT) was added, and the cells incubated on the plate shaker for 30 min. To terminate uptake, cells were transferred into 1.5 ml Eppendorf tubes, centrifuged at 5000 rpm for 5 min. The supernatant was aspirated, cells were washed with cold KHB, recentrifuged and lysed with 200 µl SDS. The solutions were transferred into vials containing 2 ml scintillation cocktail and radioactivity was determined via beta-scintillation counting (Perkin Elmer, Waltham, MA, USA). For analysis, inhibitory potency of test drugs was normalized to uptake inhibition caused by the potent VMAT inhibitor reserpine.

A further assay addresses 5-HT2B receptor (Homo sapiens, UniProt P41595). The arrangement: method as in PMID 30610839. The settings on record: concentrations as high as 7 µM; cited from earlier work.

5-HT2B receptor, sequence (P41595 whole entry): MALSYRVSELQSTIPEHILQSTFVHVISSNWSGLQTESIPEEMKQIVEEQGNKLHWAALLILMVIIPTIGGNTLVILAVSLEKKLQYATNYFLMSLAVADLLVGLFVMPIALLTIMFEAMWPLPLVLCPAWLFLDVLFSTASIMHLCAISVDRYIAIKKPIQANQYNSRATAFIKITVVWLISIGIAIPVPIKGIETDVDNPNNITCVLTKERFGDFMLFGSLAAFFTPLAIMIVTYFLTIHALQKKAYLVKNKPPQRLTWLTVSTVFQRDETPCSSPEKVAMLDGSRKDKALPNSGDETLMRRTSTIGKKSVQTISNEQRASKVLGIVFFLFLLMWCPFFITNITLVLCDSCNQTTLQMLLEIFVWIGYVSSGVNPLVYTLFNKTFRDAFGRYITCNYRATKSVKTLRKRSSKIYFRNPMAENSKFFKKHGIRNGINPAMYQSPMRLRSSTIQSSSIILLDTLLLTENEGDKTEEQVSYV

Take `CN[C@@H](C)C(=O)c1ccc(C(F)(F)F)cc1` [S-4-TFMMC, 4-trifluoromethyl-N-methylcathinone]: the “inhibition of VMAT-mediated transport compared to MDMA” value with VMATs is “significantly less effective”.

With `Cc1ccc(C(=O)[C@H](C)N)cc1` [S-4-MC, 4-methylcathinone], the “inhibition of VMAT-mediated transport compared to MDMA” value in the assay on VMATs is reported as “significantly less effective”. For the same compound, on 5-HT2B receptor, the “binding to the 5-HT2B receptor” value is given as “no binding”.

Values taken from publication PMC9645344, “Serotonin-releasing agents with reduced off-target effects” (Molecular Psychiatry, 2022).
